Experimental data: patent US20190298722A1, “USE OF AN INHIBITOR OF THE DE NOVO SYNTHESIS OF PURINES, IN THE TREATMENT OF ADENYLOSUCCINATE LYASE DEFICIENCY” (ASSISTANCE PUBLIQUE-HOPITAUX DE PARIS, priority 2016, published 2019)

Columns and labels:
[1] = system: patients with ADSL deficiency; experiment: Urinary assay of SAICAr and S-Ado by HPLC with UV detection (HPLC-DAD); type: in vivo, human; settings: 3 patients, after 6 and 12 months of treatment with allopurinol
Procedure: SAICAr and S-Ado metabolites in urine were assayed using HPLC-DAD and HPLC coupled with tandem mass spectrometry (HPLC-MS/MS) according to the techniques recently described (Ceballos-Picot et al. 2015; Zikanova et al. 2014).

[2] = system: patients with ADSL deficiency; experiment: Vineland scale (adaptive skills) during allopurinol treatment; type: in vivo, human; set-up: Vineland standardized score, Communication / Vineland standardized score, Daily life / Vineland standardized score, Social skills / Vineland standardized score, Motor skills / Vineland standardized score, TOTAL: scale not given here
Procedure: Clinical characterization of the patients was carried out before starting treatment (T1) in accordance with the ICD 10 classification, using standardized tools: • A semi-structured interview by means of the Autism Diagnostic Interview (ADI-R): this is a semi-structured interview intended to classify symptoms reported by parents in the domain of communication, social interaction, restricted and stereotyped behaviours or sensory issues. Scores are established for the current period and, if necessary, for the period when the difficulties were most serious, between the ages of 4 and 5 years. A score is established for each of the three domains based on responses provided by the parents and the judgement of the interviewer. Scores above the thresholds in the 3 domains support a diagnosis of autism, and in one or two domains support a diagnosis of a pervasive developmental disorder. Scores below the thresholds in the 3 domains make it possible to rule out diagnosis of an autism spectrum disorder if the ADI-R results converge with the clinical assessment of the child. • A semi-structured interview using the Vineland 2 scale: this is a semi-structured interview which makes it possible to assess the adaptive skills of the child in the domains of communication, daily life, social skills and motor skills. From the description of their child's daily living skills, equivalent developmental ages and standardized scores are calculated, making it possible to describe the developmental and adaptive profile of the child. • A developmental assessment using the Psychoeducational Profile (PEP 3): this is a direct assessment of the skills of the child in several domains of their development, particularly suited to children who display a developmental disability. Six domains of development are assessed: verbal and preverbal cognition (VPC), expressive language (EL), receptive language (RL), gross motor skills (GM), fine motor skills (FM) and visual-motor imitation (VMI). The results are expressed in terms of equivalent developmental age and emerging score, when the exercises are partially completed. The number of emerging skills, or the difference between the actual ages and the emerging scores, are evidence of the development potential of the children. • The Conners scale: this is an assessment scale intended to quantify the symptoms of inattentiveness, agitation, impulsiveness, anxiety, somatization, behavioural difficulties and learning difficulties. There are several versions of the questionnaire, one for parents, the other for teachers or professionals. The scoring makes it possible to obtain an overall standardized score, considered to be significant when it is greater than 1.5.
Clinical re-assessments were carried out 6 months and one year after treatment with allopurinol and compared to the first assessment in the absence of treatment with allopurinol. They comprised: • At 6 months: scoring of the Vineland and Conners scales • At 12 months: scoring of the Vineland and Conners scales and completion of PEP-3.
Clinical progress at 200 mg of allopurinol was measured for each child based on the Conner and Vineland scale scores before treatment (T1), at 6 months (T2) and at 12 months of treatment (T3) with regard to behaviour and function.

[3] = Patient 1, T2 (6 months), T1 69
[4] = Patient 1, T3 (12 months), T1 69

O=c1ncnc2[nH][nH]cc1-2 [allopurinol, 1,2-dihydro-4H-pyrazolo[3,4-d]pyrimidin-4-one]
SAICAr and S-Ado in urine (HPLC-DAD) [1]: significant reduction
standardized scores on the Vineland scale in all domains ([2]; 3 patients, during treatment, more pronounced for communication): improvement
Vineland standardized score, Communication ([2]; Patient 1, T2 (6 months), T1 67): 65
Vineland standardized score, Daily life [2, 3]: 71
Vineland standardized score, TOTAL [2, 3]: 76
Vineland standardized score, Social skills ([2]; Patient 1, T2 (6 months), T1 73): 66
Vineland standardized score, Communication ([2]; Patient 1, T3 (12 months), T1 67): 75
Vineland standardized score, Daily life [2, 4]: 74
Vineland standardized score, TOTAL [2, 4]: 74
Vineland standardized score, Social skills ([2]; Patient 1, T3 (12 months), T1 73): 75
Vineland standardized score, Communication ([2]; Patient 2, T2 (6 months), T1 57): 72
Vineland standardized score, Motor skills ([2]; Patient 2, T2 (6 months), T1 61): 67
Vineland standardized score, TOTAL ([2]; Patient 2, T2 (6 months), T1 69): 79
Vineland standardized score, Social skills ([2]; Patient 2, T2 (6 months), T1 79): 83
Vineland standardized score, Daily life ([2]; Patient 2, T2 (6 months), T1 81): 87
Vineland standardized score, Communication ([2]; Patient 2, T3 (12 months), T1 57): 75
Vineland standardized score, Motor skills ([2]; Patient 2, T3 (12 months), T1 61): 85
Vineland standardized score, TOTAL ([2]; Patient 2, T3 (12 months), T1 69): 82
Vineland standardized score, Social skills ([2]; Patient 2, T3 (12 months), T1 79): 83
Vineland standardized score, Daily life ([2]; Patient 2, T3 (12 months), T1 81): 87
Vineland standardized score, Communication ([2]; Patient 3, T2 (6 months), T1 65): 69
Vineland standardized score, Motor skills ([2]; Patient 3, T2 (6 months), T1 67): 70
Vineland standardized score, TOTAL ([2]; Patient 3, T2 (6 months), T1 71): 77
Vineland standardized score, Daily life ([2]; Patient 3, T2 (6 months), T1 75): 87
Vineland standardized score, Social skills ([2]; Patient 3, T2 (6 months), T1 76): 83
Vineland standardized score, Communication ([2]; Patient 3, T3 (12 months), T1 65): 74
Vineland standardized score, Motor skills ([2]; Patient 3, T3 (12 months), T1 67): 72
Vineland standardized score, TOTAL ([2]; Patient 3, T3 (12 months), T1 71): 80
Vineland standardized score, Daily life ([2]; Patient 3, T3 (12 months), T1 75): 87
Vineland standardized score, Social skills ([2]; Patient 3, T3 (12 months), T1 76): 88
